# Measured values reported in patent US10072005B2, “4-azaindole derivatives” (EISAI R&D MANAGEMENT CO., LTD., priority 2013, dated 2018).
# Key:
# mAChR M1 = mAChR M1 (Homo sapiens, UniProt P11229); experiment: In vitro cellular calcium flux assay, positive allosteric modulation of mAChR M1; format: cell-based; conditions: BHK cells expressing mAChR M1; EC20 carbachol; Examples 76-80 and 82-89 slightly modified procedure
# Outline: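 Baby hamster kidney cells stably expressing human mAChR M1, loaded with Calcium 4 dye in HBSS/20 mM HEPES/2.5 mM probenecid for 30 min at 37 °C. An 11-point 1-in-3 compound dilution series was added and calcium rise read as fluorescence; positive allosteric modulator pEC50 and antagonist pIC50 derived.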
# mAChR M2 = mAChR M2 (Homo sapiens (Human), UniProt P08172); experiment: In vitro cellular calcium flux assay, PAM, NAM and agonist modes, mAChR M2; format: cell-based
# Procedure: (§1) Baby hamster kidney cells stably expressing human or rat mAChR M1 to M5 were utilised for primary and selectivity profiling activities. mAChR M2 and M4 cell lines also stably expressed the chimeric Gαqi5 G-protein.
# (§2) Human mAChR M1, M3, M5 and rat M1 cells were grown in low glucose Dulbecco's Modified Eagle's Medium (DMEM) medium plus heat inactivated 10% fetal bovine serum (HI FBS) and 500 μg/ml hygromycin B^1. Human mAChR M2 and M4 cells were maintained as above with^2 the addition of 500 μg/ml G418 to the media. Cells were maintained in culture at 37° C./5% CO2 and passaged twice weekly by treatment with 0.05% Trypsin/EDTA detachment solution, centrifugation (200 g, 5 min) and re-suspension in fresh media. Following cell expansion, cells were cryopreserved at −80° C. by treatment with 0.05% Trypsin/EDTA detachment solution, centrifugation (200 g, 5 min) and re-suspension of the pellet in freezing media (90% HI FBS/10% DMSO^3) at 15E6 cells/ml^4.
# (§3) Prior to assaying, cells were prepared by thawing at 37° C. in a water bath, centrifugation (200 g, 5 min) and re-suspension of the pellet in fresh media. 15000 cells per well were seeded in black, clear bottomed 384-well Greiner Bio-One plates in plating medium (DMEM/10% HI FBS) and incubated overnight at 37 C/5% CO2.
# (§4) On the day of the assay, media was removed from each well and replaced with 50 μl^5 assay buffer (HBSS with 20 mM HEPES and 2.5 mM Probenecid) containing the calcium indicator, Calcium 4 (Molecular Devices). Cells were then incubated at 37° C./5% CO2 for 30 min and at room temperature.
# (§5) Compound preparation was carried out by generation of 11-point, 1 in 3 serial dilution concentration response curves in 100% DMSO. Compound was then diluted 1 in 65^6 with assay buffer (HBSS with 20 mM HEPES and 2.5 mM Probenecid) prior to the addition of 10 ul^7 to the cells using a Tetra fluorometric imaging plate reader (Molecular Devices)^8. Compound driven increases in intracellular calcium flux was measured as an increase in fluorescence (494Ex, 516Em)^9.
# (§6) Positive allosteric modulator pEC50 values and antagonist pIC50 values for each compound were then determined. […] The points of modification and the alternate reagents, concentrations or equipment employed in these examples were: ^1200 μg/ml hygromycin B; ^2G418 not added; ^3CELLBANKER 1; ^410E6; ^5 40 μl; ^6 1 in 99; ^7 20 μl; ^8FDSS6000 (Hamamatsu Photonics); ^9(480Ex, 540Em); ^10Spotfire (TIBCO).
# (§7) Certain compounds were tested in PAM, NAM and agonist modes against mAChR M2, M3, M4 and M5.
# mAChR M3 = mAChR M3 (Homo sapiens (Human), UniProt P20309); experiment: In vitro cellular calcium flux assay, PAM, NAM and agonist modes, mAChR M3; format: cell-based
# Procedure: as §1, §2, §3, §4, §5, §6, §7
# mAChR M4 = mAChR M4 (Homo sapiens (Human), UniProt P08173); experiment: In vitro cellular calcium flux assay, PAM, NAM and agonist modes, mAChR M4; format: cell-based
# Procedure: as §1, §2, §3, §4, §5, §6, §7
# mAChR M5 = mAChR M5 (Homo sapiens (Human), UniProt P08912); experiment: In vitro cellular calcium flux assay, PAM, NAM and agonist modes, mAChR M5; format: cell-based
# Procedure: as §1, §2, §3, §4, §5, §6, §7
# Male Lister Hooded rats = experiment: Novel Object Recognition test; format: in vivo; conditions: rat, 24 h delay
# Procedure: The Novel Object Recognition test (NOR) is based on the greater spontaneous exploration of a novel object, compared with a familiar object, observed in rodents (Behav. Brain Res., 1988, 31(1), 47-59). […] Therefore, it is considered to be analogous to recognition memory tests used in human clinical testing. Male Lister Hooded rats were assessed for object recognition in a test apparatus comprising of a perspex test arena housed within a sound attenuating chamber. Video images of behaviour were captured by digital camera and recorded to a computer. Rats were habituated to the test arena on four occasions prior to testing. Habituation sessions replicated the test day sequence exactly with the exception of object presentation. On test days, each rat was placed into the test arena and 3 minutes later the rat was presented with two identical objects (plastic shapes). The time spent actively exploring the objects during a 3-minute test period (T1) was recorded. Following T1 rats were returned to home cages. After 24 hours each rat was again placed in the test arena and 3 minutes later was presented with one of the now familiar objects and a novel object, and again the time spent actively exploring the objects during a 3-minute test period (T2) was recorded. The presentation order and position of objects (left/right) was randomised within groups to prevent bias from order or place preference. Objects were cleaned with 70% ethanol solution between trials to remove any olfactory/taste cues. Compounds were administered by oral gavage at an appropriate pre-treatment time prior to T1 and T2 (n=12) at dosage ranges between 0.03 and 3 mg/kg. In some experiments the 5-HT6 receptor antagonist N-(3,5-dichloro-2-methoxyphenyl)-4-methoxy-3-(piperazin-1-yl)benzenesulfonamide (CAS 402713-80-8) (10 mg/kg p.o.; 4 h pre-treatment time) was included as a positive control. Vehicle controls (1% methylcellulose in water) were included for comparison in each study. Results are expressed as the d2 index (difference in time spent exploring novel and familiar objects/total object exploration in T2).
# mAChR M3, sequence (P20309 whole entry, looked up): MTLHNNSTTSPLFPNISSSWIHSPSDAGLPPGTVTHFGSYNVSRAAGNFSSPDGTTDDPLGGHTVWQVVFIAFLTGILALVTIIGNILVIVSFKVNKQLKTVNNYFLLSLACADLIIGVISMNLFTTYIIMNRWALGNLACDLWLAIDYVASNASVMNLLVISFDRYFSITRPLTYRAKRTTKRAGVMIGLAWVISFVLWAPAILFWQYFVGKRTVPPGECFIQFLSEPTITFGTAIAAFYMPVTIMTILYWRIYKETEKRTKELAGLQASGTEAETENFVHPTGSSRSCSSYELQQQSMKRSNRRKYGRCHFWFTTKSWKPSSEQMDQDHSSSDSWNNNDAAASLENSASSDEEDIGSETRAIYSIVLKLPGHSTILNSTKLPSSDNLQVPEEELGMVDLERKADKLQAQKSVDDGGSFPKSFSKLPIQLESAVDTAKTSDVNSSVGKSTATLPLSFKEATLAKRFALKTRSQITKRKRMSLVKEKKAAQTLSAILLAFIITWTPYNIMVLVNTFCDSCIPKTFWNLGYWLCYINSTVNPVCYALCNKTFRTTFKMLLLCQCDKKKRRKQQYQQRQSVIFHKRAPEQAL
# mAChR M2, sequence (P08172 whole entry): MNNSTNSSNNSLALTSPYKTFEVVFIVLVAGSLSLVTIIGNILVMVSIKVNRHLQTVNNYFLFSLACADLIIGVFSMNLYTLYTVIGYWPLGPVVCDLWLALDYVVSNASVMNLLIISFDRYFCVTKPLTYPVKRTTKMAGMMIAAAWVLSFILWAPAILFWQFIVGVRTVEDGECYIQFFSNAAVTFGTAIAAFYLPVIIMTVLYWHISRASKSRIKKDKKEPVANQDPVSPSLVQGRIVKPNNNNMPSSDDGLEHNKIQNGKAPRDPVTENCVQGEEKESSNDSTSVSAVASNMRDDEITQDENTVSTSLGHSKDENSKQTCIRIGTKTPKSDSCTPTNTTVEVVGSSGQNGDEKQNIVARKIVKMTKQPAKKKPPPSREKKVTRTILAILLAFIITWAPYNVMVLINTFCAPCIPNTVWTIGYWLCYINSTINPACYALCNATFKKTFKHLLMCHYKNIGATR
# mAChR M5, sequence (P08912 whole entry): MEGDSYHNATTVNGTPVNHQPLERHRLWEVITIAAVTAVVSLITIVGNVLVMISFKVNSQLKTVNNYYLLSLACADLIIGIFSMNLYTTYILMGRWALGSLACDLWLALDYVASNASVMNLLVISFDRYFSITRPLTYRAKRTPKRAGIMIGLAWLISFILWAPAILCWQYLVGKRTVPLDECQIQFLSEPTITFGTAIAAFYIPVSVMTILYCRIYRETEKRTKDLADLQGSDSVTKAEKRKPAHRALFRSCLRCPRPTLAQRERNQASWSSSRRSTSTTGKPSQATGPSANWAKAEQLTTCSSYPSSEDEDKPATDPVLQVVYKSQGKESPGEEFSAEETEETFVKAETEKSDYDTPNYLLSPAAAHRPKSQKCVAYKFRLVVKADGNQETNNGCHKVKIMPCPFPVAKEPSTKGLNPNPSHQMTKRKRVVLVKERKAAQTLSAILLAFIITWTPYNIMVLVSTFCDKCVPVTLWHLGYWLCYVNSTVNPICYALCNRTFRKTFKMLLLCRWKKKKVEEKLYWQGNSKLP
# mAChR M4, sequence (P08173 whole entry): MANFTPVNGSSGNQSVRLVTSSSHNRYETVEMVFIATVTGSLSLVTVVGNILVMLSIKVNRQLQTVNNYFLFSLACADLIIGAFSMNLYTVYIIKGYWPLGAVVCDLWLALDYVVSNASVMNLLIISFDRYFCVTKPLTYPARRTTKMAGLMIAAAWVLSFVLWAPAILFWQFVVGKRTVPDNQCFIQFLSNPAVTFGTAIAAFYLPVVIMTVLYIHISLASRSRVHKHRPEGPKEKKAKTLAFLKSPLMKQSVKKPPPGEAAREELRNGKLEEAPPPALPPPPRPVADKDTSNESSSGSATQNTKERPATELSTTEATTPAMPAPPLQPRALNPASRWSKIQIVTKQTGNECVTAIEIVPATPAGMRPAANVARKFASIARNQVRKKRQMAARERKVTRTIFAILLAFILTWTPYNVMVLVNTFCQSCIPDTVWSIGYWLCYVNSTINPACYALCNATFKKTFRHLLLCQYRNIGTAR
# mAChR M1, sequence (P11229 whole entry, looked up): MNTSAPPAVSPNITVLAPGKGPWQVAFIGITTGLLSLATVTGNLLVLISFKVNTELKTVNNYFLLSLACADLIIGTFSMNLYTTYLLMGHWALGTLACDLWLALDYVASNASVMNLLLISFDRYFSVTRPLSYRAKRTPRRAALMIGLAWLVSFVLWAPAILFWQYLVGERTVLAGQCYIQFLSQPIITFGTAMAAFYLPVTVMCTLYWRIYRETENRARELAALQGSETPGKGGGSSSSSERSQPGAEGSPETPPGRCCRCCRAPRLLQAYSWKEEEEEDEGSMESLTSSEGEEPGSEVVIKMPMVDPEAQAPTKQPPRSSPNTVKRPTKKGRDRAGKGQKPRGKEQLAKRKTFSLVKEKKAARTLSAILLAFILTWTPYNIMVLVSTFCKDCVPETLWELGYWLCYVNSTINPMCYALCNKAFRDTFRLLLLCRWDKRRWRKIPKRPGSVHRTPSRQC
structure (smiles),measurement,setting,value
"O=C(NC1CCC(F)(F)C[C@@H]1O)c1cn(Cc2ccc(F)cc2)c2cccnc12 (single isomer, unassigned) [Example 34, N-(trans-4,4-Difluoro-2-hydroxycyclohexyl)-1-(4-fluorobenzyl)-1H-pyrrolo[3,2-b]pyridine-3-carboxamide]",pEC50 for positive allosteric modulation,mAChR M1,6.9
same,EC50,mAChR M2,> 10 µM
same,EC50,mAChR M3,> 10 µM
same,EC50,mAChR M4,> 10 µM
same,EC50,mAChR M5,> 10 µM
same,d2 index [mean ± SEM],Male Lister Hooded rats; 0.1 mg/kg p.o.,[0.08 ± 0.08]
same,d2 index [mean ± SEM],Male Lister Hooded rats; 0.3 mg/kg p.o.,[0.24 ± 0.05]*
same,d2 index [mean ± SEM],Male Lister Hooded rats; 1 mg/kg p.o.,[0.23 ± 0.06]*
"Cc1cc(Cn2cc(C(=O)N[C@H]3CCCC[C@@H]3O)c3ncccc32)ccc1F [Example 6, 1-(4-Fluoro-3-methylbenzyl)-N-((1S,2S)-2-hydroxycyclohexyl)-1H-pyrrolo[3,2-b]pyridine-3-carboxamide]",pEC50 for positive allosteric modulation,mAChR M1,6.7
same,EC50,mAChR M2,> 10 µM
same,EC50,mAChR M3,> 10 µM
same,EC50,mAChR M4,> 10 µM
same,EC50,mAChR M5,> 10 µM
same,d2 index [mean ± SEM],Male Lister Hooded rats; 0.3 mg/kg p.o.,[0.11 ± 0.09]
same,d2 index [mean ± SEM],Male Lister Hooded rats; 1 mg/kg p.o.,[0.27 ± 0.08]*
same,d2 index [mean ± SEM],Male Lister Hooded rats; 3 mg/kg p.o.,[0.36 ± 0.09]**
"O=C(N[C@H]1CCCC[C@@H]1O)c1cn(Cc2cccc(F)c2F)c2cccnc12 [Example 8, 1-(2,3-Difluorobenzyl)-N-((1S,2S)-2-hydroxycyclohexyl)-1H-pyrrolo[3,2-b]pyridine-3-carboxamide]",pEC50 for positive allosteric modulation,mAChR M1,6.5
same,EC50,mAChR M2,> 10 µM
same,EC50,mAChR M3,> 10 µM
same,EC50,mAChR M4,> 10 µM
same,EC50,mAChR M5,> 10 µM
same,d2 index [mean ± SEM],Male Lister Hooded rats; 0.03 mg/kg p.o.,[0.00 ± 0.07]
same,d2 index [mean ± SEM],Male Lister Hooded rats; 0.1 mg/kg p.o.,[0.09 ± 0.06]
same,d2 index [mean ± SEM],Male Lister Hooded rats; 0.3 mg/kg p.o.,[0.34 ± 0.06]***
"Cc1ccnc2c(C(=O)N[C@H]3CCCC[C@@H]3O)cn(Cc3ccc(F)cc3)c12 [Example 10, 1-(4-Fluorobenzyl)-N-((1S,2S)-2-hydroxycyclohexyl)-7-methyl-1H-pyrrolo[3,2-b]pyridine-3-carboxamide]",pEC50 for positive allosteric modulation,mAChR M1,7.7
same,EC50,mAChR M2,> 10 µM
same,EC50,mAChR M3,> 10 µM
same,EC50,mAChR M4,> 10 µM
same,EC50,mAChR M5,> 10 µM
same,d2 index [mean ± SEM],Male Lister Hooded rats; 0.03 mg/kg p.o.,[0.18 ± 0.10]
same,d2 index [mean ± SEM],Male Lister Hooded rats; 0.1 mg/kg p.o.,[0.18 ± 0.09]
same,d2 index [mean ± SEM],Male Lister Hooded rats; 0.3 mg/kg p.o.,[0.30 ± 0.08]**
"Cc1ccnc2c(C(=O)N[C@H]3CCCC[C@@H]3O)cn(Cc3cccc(F)c3F)c12 [Example 11, 1-(2,3-Difluorobenzyl)-N-((1S,2S)-2-hydroxycyclohexyl)-7-methyl-1H-pyrrolo[3,2-b]pyridine-3-carboxamide]",pEC50 for positive allosteric modulation,mAChR M1,6.9
same,EC50,mAChR M2,> 10 µM
same,EC50,mAChR M3,> 10 µM
same,EC50,mAChR M4,> 10 µM
same,EC50,mAChR M5,> 10 µM
same,d2 index [mean ± SEM],Male Lister Hooded rats; 0.3 mg/kg p.o.,[0.24 ± 0.06]
same,d2 index [mean ± SEM],Male Lister Hooded rats; 1 mg/kg p.o.,[0.24 ± 0.07]
same,d2 index [mean ± SEM],Male Lister Hooded rats; 3 mg/kg p.o.,[0.31 ± 0.06]**
"COc1ccc(Cn2cc(C(=O)N[C@H]3CCCC[C@@H]3O)c3nccc(C)c32)cc1 [Example 12, N-((1S,2S)-2-Hydroxycyclohexyl)-1-(4-methoxybenzyl)-7-methyl-1H-pyrrolo[3,2-b]pyridine-3-carboxamide]",pEC50 for positive allosteric modulation,mAChR M1,7.7
same,EC50,mAChR M2,> 10 µM
same,EC50,mAChR M3,> 10 µM
same,EC50,mAChR M4,> 10 µM
same,EC50,mAChR M5,> 10 µM
same,d2 index [mean ± SEM],Male Lister Hooded rats; 0.3 mg/kg p.o.,[0.13 ± 0.06]
same,d2 index [mean ± SEM],Male Lister Hooded rats; 1 mg/kg p.o.,[0.30 ± 0.05]***
same,d2 index [mean ± SEM],Male Lister Hooded rats; 3 mg/kg p.o.,[0.33 ± 0.06]***
"COc1ccc(Cn2cc(C(=O)N[C@H]3CCCC[C@@H]3O)c3nccc(C)c32)cc1F [Example 13, 1-(3-Fluoro-4-methoxybenzyl)-N-((1S,2S)-2-hydroxycyclohexyl)-7-methyl-1H-pyrrolo[3,2-b]pyridine-3-carboxamide]",pEC50 for positive allosteric modulation,mAChR M1,7.9
same,EC50,mAChR M2,> 10 µM
same,EC50,mAChR M3,> 10 µM
same,EC50,mAChR M4,> 10 µM
same,EC50,mAChR M5,> 10 µM
same,d2 index [mean ± SEM],Male Lister Hooded rats; 0.3 mg/kg p.o.,[0.09 ± 0.05]
same,d2 index [mean ± SEM],Male Lister Hooded rats; 1 mg/kg p.o.,[0.13 ± 0.07]
same,d2 index [mean ± SEM],Male Lister Hooded rats; 3 mg/kg p.o.,[0.25 ± 0.09]*
